In patent US20090209610A1, “Polymorphic form of 6-(4-chlorophenyl)-2,2-dimethyl-7-Phenyl-2,3-Dihydro-1h-Pyrrolizin-5-Ylacetic Acid” (Merckle GmgH, priority 2005, published 2009):

How the values were obtained:
[1] = stability of the crystalline form during drying and storage, chemical stability; assay type: physicochemical
Description: Polymorph B has a crystalline structure and high purity. Owing to the crystalline structure, polymorph B is stable during drying and storage. No phase transitions and no secondary aggregations are to be observed.
Surface phenomena such as electrostatic charging, adhesion, adsorption etc. occur to a distinctly smaller extent by comparison with polymorph A. The crystal structure additionally results in a high chemical stability. Owing to the narrow particle size distribution compared with polymorph A, it is possible to employ polymorph B directly for producing pharmaceutical formulations. An additional grinding step is unnecessary.

[2] = particle size measurement by laser diffraction (Helios-Sympatec); assay type: physicochemical; details: for Particle size distribution: Table 3, overall range
Protocol: Polymorph B has a narrow particle size distribution: d10-d90=1.8 μm-15.9 μm. The average particle size is 6.7 μm. Particle size measurements were carried out by means of laser diffraction spectra using the Helios-Sympatec system: dry disperser RODOS; focal length 50 mm.

[3] = target: cyclooxygenase (CO) and lipoxygenase (LO); assay: inhibitory effect on the enzymes cyclooxygenase and lipoxygenase; assay type: biochemical; details: ratio of IC50 lipoxygenase to IC50 cyclooxygenase
Description: It is notable for a strong analgesic effect and for a similar inhibitory effect on the enzymes cyclooxygenase (CO) and lipoxygenase (LO) (IC50LO/IC50CO˜1). It can therefore be used in the treatment of disorders associated with a change in arachidonic acid metabolism. Particular mention should be made of rheumatoid diseases and the prevention of allergy-induced disorders. […] In addition, it can be used for the treatment of hypercholesterolaemia.

stability during drying and storage ([1]; no phase transitions and no secondary aggregations observed) | chemical stability ([1]; resulting from the crystal structure) | Particle size distribution [2] | average particle size ([2]; laser diffraction) | particle size distribution d10 ([2]; laser diffraction, dry disperser RODOS, focal length 50 mm) | IC50LO/IC50CO [3] | SMILES
stable | high | 0.5-70 μm | 6.7 μm | 1.8 μm | ~1 | CC1(C)Cc2c(-c3ccccc3)c(-c3ccc(Cl)cc3)c(CC(=O)O)n2C1 [Polymorph B, 6-(4-chlorophenyl)-2,2-dimethyl-7-phenyl-2,3-dihydro-1H-pyrrolizin-5-ylacetic acid]
 |  | 2-500 μm |  |  |  | CC1(C)Cc2c(-c3ccccc3)c(-c3ccc(Cl)cc3)c(CC(=O)O)n2C1 [Polymorph A, 6-(4-chlorophenyl)-2,2-dimethyl-7-phenyl-2,3-dihydro-1H-pyrrolizin-5-ylacetic acid]
